# Assays:
# Assay in all cases: Kinase panel activity
# Assay type in all cases: biochemical
# Settings in all cases: 0.1 μM, ATP Km
# MINK(h) = target: T1, MINK(h) (Homo sapiens, UniProt Q8N4C8)
# T1 construct: purchased Millipore (KinaseProfiler service)
# Description: (§1) The effect of NTW-3475 on kinase activity was tested for a wide range of kinases and is shown in Table 2: Summary Sheet, Activity % ATP Concentration: Km
# PKCγ(h) = PKCγ(h) (Homo sapiens, UniProt P05129)
# Description: as §1
# cSRC(h) = cSRC(h) (Homo sapiens, UniProt P12931)
# Description: as §1
# IRAK1(h) = IRAK1(h) (Homo sapiens, UniProt P51617)
# Description: as §1
# JNK1α1(h) = JNK1α1(h) (Homo sapiens, UniProt P45983)
# Description: as §1
# Ret(V804L)(h) = target: T2, Ret(V804L)(h) (Homo sapiens, UniProt P07949, V804L)
# T2 construct: purchased Millipore (KinaseProfiler service)
# Description: as §1
# MST1(h) = MST1(h) (Homo sapiens, UniProt Q13043)
# Description: as §1
# MELK(h) = target: T3, MELK(h) (Homo sapiens, UniProt Q14680)
# T3 construct: purchased Millipore (KinaseProfiler service)
# Description: as §1
# 1tk(h) = 1tk(h) (Homo sapiens, UniProt Q08881)
# Description: as §1
# Aurora-B(h) = Aurora-B(h) (Homo sapiens, UniProt Q96GD4)
# Sequence of Aurora-B(h) (Q96GD4 whole entry): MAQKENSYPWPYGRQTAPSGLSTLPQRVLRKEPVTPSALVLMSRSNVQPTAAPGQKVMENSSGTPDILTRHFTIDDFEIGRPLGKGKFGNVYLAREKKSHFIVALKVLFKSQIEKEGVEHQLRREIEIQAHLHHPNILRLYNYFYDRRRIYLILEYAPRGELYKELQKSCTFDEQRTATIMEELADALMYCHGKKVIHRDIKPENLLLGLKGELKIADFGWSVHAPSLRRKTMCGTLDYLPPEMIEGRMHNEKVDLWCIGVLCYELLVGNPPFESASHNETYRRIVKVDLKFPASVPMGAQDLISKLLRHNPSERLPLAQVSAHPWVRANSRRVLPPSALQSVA
# Description: as §1
# PKCη(h) = PKCη(h) (Homo sapiens, UniProt P24723)
# Description: as §1
# LOK(h) = LOK(h) (Homo sapiens, UniProt O94804)
# Description: as §1
# FGFR1(h) = target: T4, FGFR1(h) (Homo sapiens, UniProt P11362)
# T4 construct: purchased Millipore (KinaseProfiler service)
# Description: as §1
# IRAK4(h) = IRAK4(h) (Homo sapiens, UniProt Q9NWZ3)
# Sequence of IRAK4(h) (Q9NWZ3 whole entry): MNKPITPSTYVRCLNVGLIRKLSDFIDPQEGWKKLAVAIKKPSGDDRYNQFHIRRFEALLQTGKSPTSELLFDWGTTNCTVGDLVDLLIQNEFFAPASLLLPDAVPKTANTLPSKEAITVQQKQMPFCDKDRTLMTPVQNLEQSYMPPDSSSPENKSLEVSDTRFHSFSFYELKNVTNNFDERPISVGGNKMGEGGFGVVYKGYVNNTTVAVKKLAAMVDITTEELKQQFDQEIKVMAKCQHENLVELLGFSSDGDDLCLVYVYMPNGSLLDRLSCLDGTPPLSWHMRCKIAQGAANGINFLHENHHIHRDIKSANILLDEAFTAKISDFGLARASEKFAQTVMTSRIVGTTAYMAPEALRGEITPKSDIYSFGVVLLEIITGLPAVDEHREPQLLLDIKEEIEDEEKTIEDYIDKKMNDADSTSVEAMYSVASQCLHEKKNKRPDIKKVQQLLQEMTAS
# Description: as §1
# CaMKIδ(h) = CaMKIδ(h) (Homo sapiens, UniProt Q8IU85)
# Description: as §1
# SGK3(h) = target: T5, SGK3(h) (Homo sapiens, UniProt Q96BR1)
# T5 construct: purchased Millipore (KinaseProfiler service)
# Description: as §1
# LKB1(h) = LKB1(h) (Homo sapiens, UniProt Q15831)
# Description: as §1
# Pyk2(h) = target: T6, Pyk2(h) (Homo sapiens, UniProt Q14289)
# T6 construct: purchased Millipore (KinaseProfiler service)
# T6 sequence (Q14289 whole entry): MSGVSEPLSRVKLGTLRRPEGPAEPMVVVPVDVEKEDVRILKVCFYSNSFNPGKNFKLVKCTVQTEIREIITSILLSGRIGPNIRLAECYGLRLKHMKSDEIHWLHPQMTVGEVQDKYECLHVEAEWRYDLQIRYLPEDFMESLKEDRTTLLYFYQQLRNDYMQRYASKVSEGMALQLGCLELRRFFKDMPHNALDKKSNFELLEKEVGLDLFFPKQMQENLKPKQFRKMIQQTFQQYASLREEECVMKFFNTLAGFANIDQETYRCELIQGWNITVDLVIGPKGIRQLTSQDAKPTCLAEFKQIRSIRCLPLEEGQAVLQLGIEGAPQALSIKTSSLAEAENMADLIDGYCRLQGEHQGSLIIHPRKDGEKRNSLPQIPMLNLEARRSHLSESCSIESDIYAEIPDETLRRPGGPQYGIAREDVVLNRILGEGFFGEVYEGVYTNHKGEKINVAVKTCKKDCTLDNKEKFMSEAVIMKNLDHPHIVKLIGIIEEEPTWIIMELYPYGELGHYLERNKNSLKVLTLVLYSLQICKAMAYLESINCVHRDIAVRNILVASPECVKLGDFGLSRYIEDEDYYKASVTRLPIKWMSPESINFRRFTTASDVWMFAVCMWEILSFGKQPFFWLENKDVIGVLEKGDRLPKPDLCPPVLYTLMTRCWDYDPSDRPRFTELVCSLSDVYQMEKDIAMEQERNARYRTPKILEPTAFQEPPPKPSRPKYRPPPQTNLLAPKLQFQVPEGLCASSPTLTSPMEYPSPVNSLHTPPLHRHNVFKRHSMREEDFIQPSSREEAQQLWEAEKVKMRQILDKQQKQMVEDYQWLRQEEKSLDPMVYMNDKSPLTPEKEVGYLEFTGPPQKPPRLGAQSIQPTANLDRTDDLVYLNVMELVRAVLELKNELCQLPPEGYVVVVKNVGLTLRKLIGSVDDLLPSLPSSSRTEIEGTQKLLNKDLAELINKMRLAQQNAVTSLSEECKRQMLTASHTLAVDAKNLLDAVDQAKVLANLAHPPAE
# Description: as §1
# GCK(h) = GCK(h) (Homo sapiens, UniProt Q12851)
# Description: as §1
# PRK2(h) = target: T7, PRK2(h) (Homo sapiens, UniProt Q16513)
# T7 construct: purchased Millipore (KinaseProfiler service)
# Description: as §1
# Pim-2(h) = Pim-2(h) (Homo sapiens, UniProt Q9P1W9)
# Description: as §1
# TrkB(h) = target: T8, TrkB(h) (Homo sapiens, UniProt Q16620)
# T8 construct: purchased Millipore (KinaseProfiler service)
# T8 sequence (Q16620 32-822): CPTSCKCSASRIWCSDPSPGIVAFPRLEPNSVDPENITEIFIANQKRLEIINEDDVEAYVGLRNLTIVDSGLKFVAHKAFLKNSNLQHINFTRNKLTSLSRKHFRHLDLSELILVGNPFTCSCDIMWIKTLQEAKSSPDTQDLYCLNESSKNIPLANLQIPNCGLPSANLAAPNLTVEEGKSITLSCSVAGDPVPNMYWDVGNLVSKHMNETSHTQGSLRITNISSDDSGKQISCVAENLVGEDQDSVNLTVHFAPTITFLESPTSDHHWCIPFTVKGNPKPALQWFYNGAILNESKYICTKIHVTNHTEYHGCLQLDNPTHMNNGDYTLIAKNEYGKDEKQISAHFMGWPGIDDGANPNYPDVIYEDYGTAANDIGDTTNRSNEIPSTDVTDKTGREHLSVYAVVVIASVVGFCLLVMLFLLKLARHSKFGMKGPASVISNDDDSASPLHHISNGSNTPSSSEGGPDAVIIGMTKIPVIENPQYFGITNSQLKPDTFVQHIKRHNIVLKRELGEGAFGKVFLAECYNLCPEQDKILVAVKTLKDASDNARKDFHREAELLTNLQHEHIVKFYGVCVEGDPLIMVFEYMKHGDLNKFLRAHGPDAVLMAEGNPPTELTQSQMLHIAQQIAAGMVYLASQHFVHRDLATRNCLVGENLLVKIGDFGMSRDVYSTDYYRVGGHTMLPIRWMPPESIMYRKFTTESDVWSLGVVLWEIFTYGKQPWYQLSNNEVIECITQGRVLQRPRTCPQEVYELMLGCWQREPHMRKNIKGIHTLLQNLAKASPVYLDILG
# Description: as §1
# ZAP-70(h) = ZAP-70(h) (Homo sapiens, UniProt P43403)
# Description: as §1
# EGFR(T790M,L858R)(h) = target: T9, EGFR(T790M,L858R)(h) (Homo sapiens, UniProt P00533, L858R/T790M)
# T9 construct: purchased Millipore (KinaseProfiler service)
# Description: as §1
# DYRK2(h) = target: T10, DYRK2(h) (Homo sapiens, UniProt Q92630)
# T10 construct: purchased Millipore (KinaseProfiler service)
# Description: as §1
# PKA(h) = PKA(h) (Homo sapiens, UniProt P17612)
# Description: as §1
# CaMKI(h) = CaMKI(h) (Homo sapiens, UniProt Q14012)
# Description: as §1
# PKCδ(h) = PKCδ(h) (Homo sapiens, UniProt Q05655)
# Description: as §1
# SAPK2a(T106M)(h) = target: T11, SAPK2a(T106M)(h) (Homo sapiens, UniProt Q16539, T106M)
# T11 construct: purchased Millipore (KinaseProfiler service)
# Description: as §1
# NLK(h) = NLK(h) (Homo sapiens, UniProt Q9UBE8)
# Description: as §1
# Tie2(h) = target: T12, Tie2(h) (Homo sapiens, UniProt Q02763)
# T12 construct: purchased Millipore (KinaseProfiler service)
# Description: as §1
# STK33(h) = target: T13, STK33(h) (Homo sapiens, UniProt Q9BYT3)
# T13 construct: purchased Millipore (KinaseProfiler service)
# Description: as §1
# Lyn(h) = Lyn(h) (Homo sapiens, UniProt P07948)
# Description: as §1
# EphA7(h) = target: T14, EphA7(h) (Homo sapiens, UniProt Q15375)
# T14 construct: purchased Millipore (KinaseProfiler service)
# Description: as §1
# TAO2(h) = target: T15, TAO2(h) (Homo sapiens, UniProt Q9UL54)
# T15 construct: purchased Millipore (KinaseProfiler service)
# Description: as §1
# Arg(m) = Arg(m) (Mus musculus, UniProt Q4JIM5)
# Description: as §1
# TAO3(h) = target: T16, TAO3(h) (Homo sapiens, UniProt Q9H2K8)
# T16 construct: purchased Millipore (KinaseProfiler service)
# T16 sequence (Q9H2K8 whole entry): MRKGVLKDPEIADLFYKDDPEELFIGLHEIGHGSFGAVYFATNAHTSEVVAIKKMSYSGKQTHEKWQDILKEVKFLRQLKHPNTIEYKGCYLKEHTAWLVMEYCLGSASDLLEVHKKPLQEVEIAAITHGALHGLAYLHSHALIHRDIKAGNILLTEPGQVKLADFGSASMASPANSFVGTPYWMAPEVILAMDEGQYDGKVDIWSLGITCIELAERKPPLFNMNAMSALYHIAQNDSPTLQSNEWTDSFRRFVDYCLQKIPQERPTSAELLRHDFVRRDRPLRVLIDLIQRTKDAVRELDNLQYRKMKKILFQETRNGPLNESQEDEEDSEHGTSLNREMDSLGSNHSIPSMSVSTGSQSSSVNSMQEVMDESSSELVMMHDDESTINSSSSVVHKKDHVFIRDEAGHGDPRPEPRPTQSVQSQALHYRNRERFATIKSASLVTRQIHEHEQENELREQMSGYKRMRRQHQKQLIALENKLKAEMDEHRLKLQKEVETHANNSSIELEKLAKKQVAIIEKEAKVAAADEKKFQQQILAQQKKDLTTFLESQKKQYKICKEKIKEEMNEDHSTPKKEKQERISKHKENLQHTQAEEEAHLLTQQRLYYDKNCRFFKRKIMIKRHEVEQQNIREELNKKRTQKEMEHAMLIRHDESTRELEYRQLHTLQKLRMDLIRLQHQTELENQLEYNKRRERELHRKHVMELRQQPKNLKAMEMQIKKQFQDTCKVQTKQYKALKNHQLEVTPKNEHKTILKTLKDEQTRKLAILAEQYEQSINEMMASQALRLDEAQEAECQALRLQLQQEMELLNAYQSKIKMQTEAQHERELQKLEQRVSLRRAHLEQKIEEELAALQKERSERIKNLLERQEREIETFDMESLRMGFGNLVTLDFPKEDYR
# Description: as §1
# IR(h) = IR(h) (Homo sapiens, UniProt P06213)
# Description: as §1
# PTK5(h) = target: T17, PTK5(h) (Homo sapiens, UniProt P42685)
# T17 construct: purchased Millipore (KinaseProfiler service)
# Description: as §1
# PAK6(h) = PAK6(h) (Homo sapiens, UniProt Q9NQU5)
# Sequence of PAK6(h) (Q9NQU5 whole entry): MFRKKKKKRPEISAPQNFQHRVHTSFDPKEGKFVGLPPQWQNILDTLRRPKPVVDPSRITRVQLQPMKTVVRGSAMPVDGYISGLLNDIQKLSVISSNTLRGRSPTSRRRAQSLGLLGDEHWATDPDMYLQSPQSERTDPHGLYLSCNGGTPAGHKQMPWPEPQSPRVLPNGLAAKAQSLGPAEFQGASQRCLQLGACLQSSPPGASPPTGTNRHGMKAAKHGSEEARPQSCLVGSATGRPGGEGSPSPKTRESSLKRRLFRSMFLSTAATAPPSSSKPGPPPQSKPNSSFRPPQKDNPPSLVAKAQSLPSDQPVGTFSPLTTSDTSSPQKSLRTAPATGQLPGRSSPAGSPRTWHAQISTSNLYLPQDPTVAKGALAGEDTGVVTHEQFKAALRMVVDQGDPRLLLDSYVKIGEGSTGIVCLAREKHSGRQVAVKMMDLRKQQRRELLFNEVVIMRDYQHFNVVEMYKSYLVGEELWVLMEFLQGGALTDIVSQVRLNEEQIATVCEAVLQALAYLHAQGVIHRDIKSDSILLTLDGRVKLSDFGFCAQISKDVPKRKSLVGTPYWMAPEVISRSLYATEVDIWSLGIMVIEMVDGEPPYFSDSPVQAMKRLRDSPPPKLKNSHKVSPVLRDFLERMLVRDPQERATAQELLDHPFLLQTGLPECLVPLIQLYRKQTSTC
# Description: as §1
smiles,measurement,setting,value
Cc1cc2c(F)c(Oc3nc(Nc4cc(C5CC5)[nH]n4)cc(N4CCN(C)CC4)n3)cc(F)c2[nH]1 [NTW-3475],Activity %,MINK(h),75%
same,Activity %,PKCγ(h),102%
same,Activity %,cSRC(h),2%
same,Activity %,IRAK1(h),96%
same,Activity %,JNK1α1(h),92%
same,Activity %,Ret(V804L)(h),−4%
same,Activity %,MST1(h),24%
same,Activity %,MELK(h),40%
same,Activity %,1tk(h),29%
same,Activity %,Aurora-B(h),1%
same,Activity %,PKCη(h),101%
same,Activity %,LOK(h),20%
same,Activity %,FGFR1(h),−1%
same,Activity %,IRAK4(h),67%
same,Activity %,CaMKIδ(h),87%
same,Activity %,SGK3(h),102%
same,Activity %,LKB1(h),98%
same,Activity %,Pyk2(h),59%
same,Activity %,GCK(h),13%
same,Activity %,PRK2(h),30%
same,Activity %,Pim-2(h),96%
same,Activity %,TrkB(h),1%
same,Activity %,ZAP-70(h),110%
same,Activity %,"EGFR(T790M,L858R)(h)",17%
same,Activity %,DYRK2(h),96%
same,Activity %,PKA(h),111%
same,Activity %,CaMKI(h),90%
same,Activity %,PKCδ(h),90%
same,Activity %,SAPK2a(T106M)(h),95%
same,Activity %,NLK(h),96%
same,Activity %,Tie2(h),0%
same,Activity %,STK33(h),101%
same,Activity %,Lyn(h),5%
same,Activity %,EphA7(h),54%
same,Activity %,TAO2(h),6%
same,Activity %,Arg(m),−2%
same,Activity %,TAO3(h),16%
same,Activity %,IR(h),30%
same,Activity %,PTK5(h),17%
same,Activity %,PAK6(h),85%

# Reference: US9458137B2, “Substituted indol-5-ol derivatives and their therapeutical applications” (NantBioScience, Inc., priority 2012, dated 2016)
